Read-outs that look alike come from different tables or passages of the source.
Experiments:
[1] = molecular target: FIH; settings: cited from earlier work
[2] = tested on: FIH; settings: read-out: KM (Michaelis constant for αKG), FIH; cited from earlier work
[3] = molecular target: Recombinant human FIH-1 (Homo sapiens, UniProt Q9NWT6); assay: FIH dose-response activity assay; type: biochemical
[4] = molecular target: Recombinant human PHD2 (Homo sapiens, UniProt Q9GZT9); assay: PHD2 dose-response activity assay; type: biochemical; settings: sub-saturating αKG
Sequence of Recombinant human PHD2 (Q9GZT9 177-426): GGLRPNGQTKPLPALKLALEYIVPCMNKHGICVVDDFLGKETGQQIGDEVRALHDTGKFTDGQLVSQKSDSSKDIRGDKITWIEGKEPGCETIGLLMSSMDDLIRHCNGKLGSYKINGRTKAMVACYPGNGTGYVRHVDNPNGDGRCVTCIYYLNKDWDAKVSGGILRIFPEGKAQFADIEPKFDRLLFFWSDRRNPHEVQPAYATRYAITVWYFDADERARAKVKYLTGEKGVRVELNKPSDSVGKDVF

Sequence of Recombinant human FIH-1 (Q9NWT6 whole entry): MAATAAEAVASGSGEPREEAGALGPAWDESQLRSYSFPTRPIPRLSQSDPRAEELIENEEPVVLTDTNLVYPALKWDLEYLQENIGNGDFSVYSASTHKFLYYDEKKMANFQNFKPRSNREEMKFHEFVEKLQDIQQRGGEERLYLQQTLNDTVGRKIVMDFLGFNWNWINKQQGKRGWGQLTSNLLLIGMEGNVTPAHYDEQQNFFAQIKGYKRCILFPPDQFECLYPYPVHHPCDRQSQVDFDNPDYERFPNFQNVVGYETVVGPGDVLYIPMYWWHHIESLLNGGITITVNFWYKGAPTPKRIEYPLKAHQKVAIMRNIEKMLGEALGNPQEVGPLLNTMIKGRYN

Row | Compound | IC50 [3] [µM] | also measured
1 | N-oxalyl-D-phenylalanine |  | Ki [1]: 90 µM
2 | O=C(O)CCC(=O)C(=O)O [αKG, alpha-ketoglutarate] |  | Km [2]: 22 ± 6 µM
3 | O=c1cc(CO)occ1O [Compound 4, 5-Hydroxy-2-hydroxymethyl-4-pyrone] | 170 | 
4 | O=C(O)c1cc(=O)c(O)co1 [Compound 5, 5-Hydroxy-4-oxo-4H-pyran-2-carboxylic acid] | 50 | 
5 | Cc1c(O)c(=O)ccn1C [Compound 7, 3-Hydroxy-1,2-dimethyl-4(1H)-pyridinone] | 30 | 
6 | Cc1ccc(C#N)c(=O)[nH]1 [Compound 1, 3-Cyano-6-methyl-2(H) pyridinone] |  | inhibition toward PHD2 [4]: no inhibition; inhibition toward FIH ([3]; dose response, sub-saturating αKG): no inhibition; IC50 ([3]; read-out: FIH IC50, 10 µM αKG, 0.5 µM FIH, 50 mM HEPES pH 7.50, 37.0 °C): > 1000 µM
7 | Cc1occc(=O)c1O [Compound 6, 3-Hydroxy-2-methyl-4-pyrone] | 70 | 

The next lines start with results.

Row | IC50 [3] [µM] | Compound | also measured
8 | 10 | O=[N+]([O-])c1ccc(O)c(O)c1 [Compound 8, 4-Nitrocatechol] | 
9 | 120 | CC(C)(C)c1ccc(O)c(O)c1 [Compound 10, 4-tert-Butylcatechol] | 
10 | 50 | Cc1ccc(O)c(O)c1 [Compound 9, 4-Methylcatechol] | 
11 | 75 | Oc1cccnc1O [Compound 3, 2,3-Dihydroxypyridine] | 
